Assay results from publication PMC10996005, “Identification and Development of Cyclic Peptide Inhibitors of Hypoxia Inducible Factors 1 and 2 That Disrupt Hypoxia-Response Signaling in Cancer Cells” (Journal of the American Chemical Society, 2024).
Where a SMILES comes first, the peptide text is derived from it. [ ]: non-standard residue; d: D form. Phe(4-I) = N[C@@H](Cc1ccc(I)cc1)C(=O)O

Experiments:
[1] = tested on: HIF-driven expression of YFP in T-REx-293 reporter cell line; experiment: HRE-YFP reporter assay in hypoxia; format: cell-based, human
Excerpt: Following in vitro characterization and optimization of binding, we next assessed the effect of our cyclic peptides in mammalian cells. A cell line with a stably integrated reporter was constructed, in which the expression of yellow fluorescent protein (YFP) was placed under the control of a HRE. Thus, hypoxia would be expected to increase YFP expression (and subsequent fluorescence) in these cells, whereas treatment with a cell-permeable HIF inhibitor would be expected to reduce this fluorescence signal. A fusion cassette was designed containing the YFP gene preceded by three copies of the HRE sequence. This cassette was stably integrated into T-REx-293 cells as previously described.[12] […] The effect of this compound on the viability of T-Rex-293 was assessed with no effect observed at doses up to 75 μM (Figure S9a). […] It should be noted that the relative activity of each compound in this assay will be a combination of its cell permeability and HIF-inhibiting activity. […] We therefore continued to further characterize the cell activity of the 4-iodo-phenylalanine derivative. […]
Generation of HRE-eYFP integrated cell line
The Flp-In System (Fisher) was used to generate a constitutive expression cell line that expresses eYFP under the control of the VEGF HRE. The coding sequence of the yellow fluorescent protein (eYFP) was cloned downstream of the VEGF HRE sequence in the pcDNA5 plasmid, such that the entire cassette was under the regulation of a Tet-On gene expression system. The plasmid was transfected into a human embryonic kidney cell line (Flp-In™-293) and integrated using the manufacturer’s protocol.
Activity Assessment using Flp-In-HRE-eYFP cell line
The Flp-In-HRE-eYFP cells were plated on 24-well plates at 80% confluency and incubated overnight under normoxic conditions. The cells were then treated with different concentrations of compound and incubated for 18 hours under hypoxic conditions. After treatment, the cells were washed with PBS and lysed to extract the total cellular protein. The cell extract was cold centrifuged for 20 minutes at 14,000 RPM. An equal amount of the supernatant from each treatment was plated on a 96-well plate, and the emission of eYFP was measured using a microplate reader. […]

HIF-1α in Panc-1 cells = target: T1, HIF-1α in Panc-1 cells (Homo sapiens, UniProt Q16665); experiment: Cellular thermal shift assay; format: cell-based; conditions: 40 μM, samples heated to 54 °C
T1 construct: endogenous in cells; host or cells: PANC-1
Procedure: Next, we used a cellular-thermal shift assay[40] to assess whether our lead molecule binds to HIF-1α in the intracellular environment. We observed a 2.9 ± 0.4-fold increased level of HIF-1α protein in Panc-1 (pancreatic cancer) cells treated with 40 μM cyclo-CRLII(4-iodo)F compared to DMSO control in samples heated to 54 °C, indicating intracellular binding of this compound to its protein target (Figure 6d). […]
highest pLDDT score was relaxes with the inbuilt amber energy minimisation and used for subsequent docking steps. HADDOCK docking was performed by assigning the HIF-1α PAS-B domain (residues 214-335) and CRLIIF residues 1, 5 and 6 as active residue binders and clustered using the inbuilt RMSD clustering algorithm.
Cellular Thermal Shift Assay
Pancreatic cancer cells (PANC-1) were plated in a T75 flask at 80% confluency overnight under normoxic conditions. The cells were then dosed with compound and incubated for 18 hours under hypoxic conditions (1% O2, 94% N2, 5% CO2, 80% Humidity). The cells were subsequently washed with PBS and divided into several aliquots, each of which was exposed to different temperatures (45°C, 48°C, 51°C, and 54°C) for 30 seconds on a thermal cycler (Bio-Rad). […] The concentration of the extracted proteins was measured using the BCA Protein Assay Kit (Sigma) following the manufacturer's instructions. […]

T1 sequence (Q16665 whole entry): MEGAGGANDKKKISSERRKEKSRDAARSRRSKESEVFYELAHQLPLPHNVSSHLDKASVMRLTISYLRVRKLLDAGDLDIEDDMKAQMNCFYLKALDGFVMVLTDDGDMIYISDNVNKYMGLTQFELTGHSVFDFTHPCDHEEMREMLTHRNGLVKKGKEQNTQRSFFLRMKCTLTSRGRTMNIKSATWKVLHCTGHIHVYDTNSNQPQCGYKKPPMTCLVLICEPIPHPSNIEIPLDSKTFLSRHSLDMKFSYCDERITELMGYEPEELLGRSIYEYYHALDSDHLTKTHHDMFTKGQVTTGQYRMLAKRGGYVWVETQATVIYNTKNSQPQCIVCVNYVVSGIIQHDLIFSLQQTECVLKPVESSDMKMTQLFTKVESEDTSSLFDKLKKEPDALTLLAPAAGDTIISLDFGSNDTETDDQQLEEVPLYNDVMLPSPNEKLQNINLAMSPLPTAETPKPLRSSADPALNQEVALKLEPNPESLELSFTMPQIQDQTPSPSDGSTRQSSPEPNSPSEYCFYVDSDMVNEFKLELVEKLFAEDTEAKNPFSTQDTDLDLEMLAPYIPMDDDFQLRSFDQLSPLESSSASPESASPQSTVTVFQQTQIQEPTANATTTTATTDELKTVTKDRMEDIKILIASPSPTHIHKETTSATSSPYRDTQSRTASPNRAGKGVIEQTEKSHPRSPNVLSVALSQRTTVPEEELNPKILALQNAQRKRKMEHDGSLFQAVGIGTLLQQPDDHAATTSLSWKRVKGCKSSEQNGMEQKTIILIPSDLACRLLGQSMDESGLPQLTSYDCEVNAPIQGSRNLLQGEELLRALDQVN

Compound: CC[C@H](C)[C@@H]1NC(=O)[C@H](CC(C)C)NC(=O)[C@H](CCCNC(=N)N)NC(=O)[C@H](CS)NC(=O)[C@H](Cc2ccc(I)cc2)NC(=O)[C@H]([C@@H](C)CC)NC1=O [cyclo-CRLII(4-iodo)F] (cyclo(CRLII[Phe(4-I)]))
- EC50 ([1]; T-REx-293 HRE-YFP reporter, 18 hours, read-out: EC50 for reduction in hypoxia-mediated YFP fluorescence): 30.7 ± 2.1 µM
- relative activity among the 9 most potent cyclo-CRLIIF derivatives on YFP expression ([1]; T-Rex-293 HRE-YFP reporter): most active
- increased level of HIF-1α protein compared to DMSO control (HIF-1α in Panc-1 cells): 2.9 ± 0.4 fold
